# Measurements published in US20240343722A1 (VIFOR (INTERNATIONAL) AG, priority 2021, published 2024).
# Molecular target: T1, ferroportin (Fpn) (Mus musculus, UniProt Q9JHI9)
# T1 construct: endogenous in cells; host or cells: J774 mouse macrophage cell line, induced with Fe(III)NTA
# T1 sequence (Q9JHI9 1-570): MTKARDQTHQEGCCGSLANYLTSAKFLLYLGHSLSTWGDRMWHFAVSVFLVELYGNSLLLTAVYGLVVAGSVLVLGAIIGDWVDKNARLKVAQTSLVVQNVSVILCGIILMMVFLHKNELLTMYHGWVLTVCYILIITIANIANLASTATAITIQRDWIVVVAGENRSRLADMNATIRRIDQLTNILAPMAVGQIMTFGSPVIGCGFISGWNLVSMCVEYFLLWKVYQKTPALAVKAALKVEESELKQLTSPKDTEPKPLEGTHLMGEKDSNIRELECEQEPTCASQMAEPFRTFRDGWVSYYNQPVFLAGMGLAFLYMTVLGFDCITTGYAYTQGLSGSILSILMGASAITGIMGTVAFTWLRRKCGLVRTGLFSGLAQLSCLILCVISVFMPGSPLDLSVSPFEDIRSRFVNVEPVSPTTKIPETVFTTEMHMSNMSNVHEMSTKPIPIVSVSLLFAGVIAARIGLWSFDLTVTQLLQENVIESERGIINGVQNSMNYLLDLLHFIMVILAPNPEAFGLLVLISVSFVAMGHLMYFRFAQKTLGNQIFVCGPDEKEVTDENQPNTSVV
# Assay: Hepcidin Internalization Assay (J774)
# Format: cell-based
# Details: Average (AVE) IC50 of multiple measurements; inhibition of TMR-hepcidin (25 nM) internalization into J774 cells
# Excerpt: This cellular assay allows quantification of the binding of hepcidin to ferroportin (Fpn) through microscopic detection of internalization of a fluorescently labeled hepcidin into J774 cells. […] Binding of hepcidin to Fpn triggers internalization and degradation of both hepcidin and Fpn. […] Therefore, microscopic detection of cell-associated TMR fluorescence is a measure of hepcidin binding to Fpn and internalization of hepcidin and Fpn. If TMR-hepcidin is prevented from binding to Fpn, cellular TMR fluorescence remains low (Durrenberger et al, 2013). The effect of small molecular weight Fpn inhibitor compounds in this assay was evaluated in vitro as described below. […] After removal of the paraformaldehyde solution, cells were washed 3 times with PBS leaving 100 μl per well and the plates were sealed with foil plate seal. TMR (530-550 nm excitation/575-625 nm emission/400 ms exposure time) and Hoechst 33342 (360-370 nm excitation/420-460 nm emission /10 ms exposure time) fluorescence images were acquired using a […] imager (Olympus) with a 20× high NA objective. […] The acquired image data was analysed with the […] analysis software. […] IC50 values were calculated with the Sum(Mean) raw data using “log(inhibitor) vs. response” curve fitting of Prism 5 software (GraphPad Software Inc., version 5.02). For each data set the fit of the “log(inhibitor) vs. response (three parameters)” model was compared to the fit of the “log(inhibitor) vs. response - Variable slope (four parameters)” model and the IC50 data of the preferred model was used.
row,SMILES,IC50 [nM]
1,"CCCCn1c(C2CCN(CCc3nc(C(=O)NCc4ncccc4F)co3)CC2)nc2ccccc21 [Example 49, 2-(2-(4-(1-butyl-1 H-benzo[d]imidazol-2-yl)piperidin-1-yl)ethyl)-N-((3-fluoropyridin-2-yl)methyl)oxazole-4-carboxamide]",3300
2,"CCCCn1c(CC(C)(C)NCCc2nc(C(=O)NCc3ncccc3F)co2)nc2ccccc21 [Example 52, 2-(2-((1-(1-butyl-1 H-benzo[d]imidazol-2-yl)-2-methylpropan-2-yl)amino)ethyl)-N-((3-fluoropyridin-Z-yl)methyl)oxazole-4-carboxamide]",625
3,"CCCCn1c(C(C)(C)CNCCc2nc(C(=O)NCc3ncccc3F)co2)nc2ccccc21 [Example 60, 2-(2-((2-(1-butyl-1 H-benzo[d]imidazol-2-yl)-2-methylpropyl)amino)ethyl)-N-((3-fluoropyridin-2-yl)methyl)oxazole-4-carboxamide]",355
4,"CCCCn1c(C2(CNCCc3nc(C(=O)NCc4ncccc4F)co3)CCCCC2)nc2ccccc21 [Example 61, 2-(2-(((1-(1-butyl-1H-benzo[d]imidazol-2-yl)cyclohexyl)methyl)amino)ethyl)-N-((3-fluoropyridin-2-yl)methyl)oxazole-4-carboxamide]",1430
5,O=C(NCc1ncccc1F)c1coc(CCNCCc2nc3cc4c(cc3n2CC2CC2)OCCO4)n1 [Example 65],1.2
6,"COCCOCCn1c(CCNCCc2nc(C(=O)NCc3ncccc3OC)co2)nc2cc3c(cc21)OCCO3 [Example 66, 2-(2-((2-(1-(2-(2-methoxyethoxy)ethyl)-6,7-dihydro-1 H-[1,4]dioxino[2′,3′:4,5]benzo[1,2-d]imidazol-2-yl)ethyl)amino)ethyl)-N-((3-methoxypyridin-2-yl)methyl)oxazole-4-carboxamide]",5
7,"COCCn1c(CCNCCc2nc(C(=O)NCc3ncccc3OC)co2)nc2cc3c(cc21)OCCO3 [Example 67, 2-(2-((2-(1-(2-methoxyethyl)-6,7-dihydro-1H-[1,4]dioxino[2′,3′:4,5]benzo[1,2-d]imidazol-2-yl)ethyl)amino)ethyl)-N-((3-methoxypyridin-2-yl)methyl)oxazole-4-carboxamide]",4.3
8,"COc1cccnc1CNC(=O)c1coc(CCNCCc2nc3cc4c(cc3n2CC(F)F)OCCO4)n1 [Example 68, 2-(2-((2-(1-(2,2-difluoroethyl)-6,7-dihydro-1 H-[1,4]dioxino[2′,3′:4,5]benzo[1,2-d]imidazol-2-yl)ethyl)amino)ethyl)-N-((3-methoxypyridin-2-yl)methyl)oxazole-4-carboxamide]",7
9,"COCCn1c(CCNCCc2nc(C(=O)NCc3ncccc3F)co2)nc2cc3c(cc21)OCO3 [Example 69, N-((3-fluoropyridin-2-yl)methyl)-2-(2-((2-(5-(2-methoxyethyl)-5H-[1,3]dioxolo[4′,5′:4,5]benzo[1,2-d]imidazol-6-yl)ethyl)amino)ethyl)oxazole-4-carboxamide]",3
10,"COCCn1c(CCNCCc2nc(C(=O)NCc3ncccc3OC)co2)nc2cc3c(cc21)OCO3 [Example 70, 2-(2-((2-(5-(2-methoxyethyl)-5H-[1,3]dioxolo[4′,5′:4,5]benzo[1,2-d]imidazol-6-yl)ethyl)amino)ethyl)-N-((3-methoxypyridin-2-yl)methyl)oxazole-4-carboxamide]",3.9

# Other lines, results leading:
row,IC50 [nM],SMILES
1,0.8,"COc1cccc(CCn2c(CCNCCc3nc(C(=O)NCc4ncccc4F)co3)nc3ccccc32)c1 [Example 45, N-((3-fluoropyridin-2-yl)methyl)-2-(2-((2-(1-(3-methoxyphenethyl)-1 H-benzo[d]imidazol-2-yl)ethyl)amino)ethyl)oxazole-4-carboxamide]"
2,1,"CCCCn1c(CCNCCc2nc(C(=O)NCc3ncccc3OC)co2)nc2ccccc21 [Example 46, 2-(2-((2-(1-butyl-1 H-benzo[d]imidazol-2-yl)ethyl)amino)ethyl)-N-((3-methoxypyridin-2-yl)methyl)oxazole-4-carboxamide]"
3,8,"CCCCn1c(CCNCCc2nc(C(=O)NCc3ncccc3C(F)(F)F)co2)nc2ccccc21 [Example 47, 2-(2-((2-(1-butyl-1 H-benzo[d]imidazol-2-yl)ethyl)amino)ethyl)-N-((3-(trifluoromethyl)pyridin-2-yl)methyl)oxazole-4-carboxamide]"
4,2,"COCCOCCn1c(CCNCCc2nc(C(=O)NCc3ncccc3F)co2)nc2ccccc21 [Example 48, N-((3-fluoropyridin-2-yl)methyl)-2-(2-((2-(1-(2-(2-methoxyethoxy)ethyl)-1 H-benzo[d]imidazol-2-yl)ethyl)amino)ethyl)oxazole-4-carboxamide]"
5,0.8,"O=C(NCc1ncccc1F)c1coc(CCNCCc2nc3ccccc3n2CC2CC2)n1 [Example 50, 2-(2-((2-(1-(Cyclopropylmethyl)-1 H-benzo[d]imidazol-2-yl)ethyl)amino)ethyl)-N-((3-fluoropyridin-2-yl)methyl)oxazole-4-carboxamide]"
6,0.8,"O=C(NCc1ncccc1F)c1coc(CCNCCc2nc3ccccc3n2CC2CCCCC2)n1 [Example 51, 2-(2-((2-(1-(cyclohexylmethyl)-1H-benzo[d]imidazol-2-yl)ethyl)amino)ethyl)-N-((3-fluoropyridin-2-yl)methyl)oxazole-4-carboxamide]"
7,5,"O=C(NCc1ncccc1F)c1coc(CCNCCc2nc3ccccc3n2CC(F)F)n1 [Example 53, 2-(2-((2-(1-(2,2-difluoroethyl)-1H-benzo[d]imidazol-2-yl)ethyl)amino)ethyl)-N-((3-fluoropyridin-2-yl)methyl)oxazole-4-carboxamide]"
8,0.9,"O=C(NCc1ncccc1F)c1coc(CCNCCc2nc3ccccc3n2Cc2ccccc2Cl)n1 [Example 54, 2-(2-((2-(1-(2-chlorobenzyl)-1H-benzo[d]imidazol-2-yl)ethyl)amino)ethyl)-N-((3-fluoropyridin-2-yl)methyl)oxazole-4-carboxamide]"
9,1.4,"O=C(NCc1ncccc1F)c1coc(CCNCCc2nc3ccccc3n2-c2ccccc2)n1 [Example 55, N-((3-fluoropyridin-2-yl)methyl)-2-(2-((2-(1-phenyl-1 H-benzo[d]imidazol-2-yl)ethyl)amino)ethyl)oxazole-4-carboxamide]"
10,9,"CN(C)CCn1c(CCNCCc2nc(C(=O)NCc3ncccc3F)co2)nc2ccccc21 [Example 56, 2-(2-((2-(1-(2-(dimethylamino)ethyl)-1 H-benzo[d]imidazol-2-yl)ethyl)amino)ethyl)-N-((3-fluoropyridin-2-yl)methyl)oxazole-4-carboxamide]"
11,1.4,"CC(C)OCCn1c(CCNCCc2nc(C(=O)NCc3ncccc3F)co2)nc2ccccc21 [Example 57, N-((3-fluoropyridin-2-yl)methyl)-2-(2-((2-(1-(2-isopropoxyethyl)-1 H-benzo[d]imidazol-2-yl)ethyl)amino)ethyl)oxazole-4-carboxamide]"
12,0.8,"O=C(NCc1ncccc1F)c1coc(CCNCCc2nc3ccccc3n2Cc2ccc(Cl)cc2)n1 [Example 58, 2-(2-((2-(1-(4-chlorobenzyl)-1H-benzo[d]imidazol-2-yl)ethyl)amino)ethyl)-N-((3-fluoropyridin-2-yl)methyl)oxazole-4-carboxamide]"
13,8.5,"O=C(NCc1ncccc1F)c1coc(CCNCCc2nc3ccccc3n2Cc2ccncn2)n1 [Example 62, N-((3-fluoropyridin-2-yl)methyl)-2-(2-((2-(1-(pyrimidin-4-ylmethyl)-1 H-benzo[d]imidazol-2-yl)ethyl)amino)ethyl)oxazole-4-carboxamide]"
14,0.8,"COc1cccc(-n2c(CCNCCc3nc(C(=O)NCc4ncccc4F)co3)nc3ccccc32)c1 [Example 63, N-((3-fluoropyridin-2-yl)methyl)-2-(2-((2-(1-(3-methoxyphenyl)-1H-benzo[d]imidazol-2-yl)ethyl)amino)ethyl)oxazole-4-carboxamide]"
15,1.3,"O=C(NCc1ncccc1F)c1coc(CCNCCc2nc3ccccc3n2-c2cccc(Cl)c2)n1 [Example 64, 2-(2-((2-(1-(3-chlorophenyl)-1 H-benzo[d]imidazol-2-yl)ethyl)amino)ethyl)-N-((3-fluoropyridin-2-yl)methyl)oxazole-4-carboxamide]"
